Measurements published in US20230210857A1, “RESPIRATORY STIMULANT PARENTERAL FORMULATIONS” (Enalare Therapeutics Inc., priority 2021, published 2023).

Key:
Type in all cases: physicochemical
[1] = pH solubility study (100 mM citric acid, shaken overnight at room temperature, HPLC assay)
Protocol: A pH solubility study was performed to assess the feasibility of formulating the active agent (N-(4,6-Bis-n-propylamino-[1,3,5]triazin-2-yl)-O,N-dimethyl-hydroxylamine) as a simple buffered solution at a reasonable pH for an IV formulation.
Methodology: The active agent (N-(4,6-Bis-n-propyl amino-[1,3,5]triazin-2-yl)-O,N-dimethyl-hydroxylamine) and H2SO4 solution of concentration ˜107 mg/mL in 100 mM citric acid at pH 2.5 was prepared. About 150 μL aliquots of this solution were transferred into 6 separate glass HPLC vials. All the samples, including the solution at pH 2.5, were shaken overnight at room temperature using a gyratory shaker. After shaking, the samples were evaluated visually for the presence of precipitate and were then spin filtered through 0.45 μm syringe tip filters (4 mm diameter) at 3000 rpm for 20 min. The final pH values of the filtrates were measured. The filtrates were then diluted appropriately and analyzed for the active agent (N-(4,6-Bis-n-propylamino-[1,3,5]triazin-2-yl)-O,N-dimethyl-hydroxylamine). H2SO4 concentration using the HPLC assay.
Results: The pH values of the samples prior to and after shaking overnight, appearance as well as concentrations of samples are shown in Table 12.

[2] = pKa and theoretical free base solubility
[3] = Stability as a function of pH 2-6 (1 mg/mL, 0.25 mg/mL at pH 6, in ~10 mM citric acid/glycine buffers)
Excerpt: Thus, the inventors believe that the solubility of the drug becomes inadequate for the intended product concentration above about pH 3.6. However, the drug product will be diluted prior to infusion and then intravenously infused slowly, and such a low pH is unlikely to present a safety or patient comfort issue, but stability of the drug in solution could be an issue at such a low pH. The purpose of this experiment was to assess the stability of the drug as a function of pH.
A key consideration in such an experiment is the concentration of drug and buffer used. Use of a buffer is essential since the data is meaningless if the pH shifts dramatically during the experiment. However, it is desirable to keep the buffer at minimal strength to minimize the impact of buffer catalysis. Buffer strength can be minimized by keeping the drug concentration low. Keeping the drug concentration low also minimizes confounding the data with solubility limits (i.e. the drug precipitating out of solution).
Methodology: Buffer solutions containing ˜10 mM each of citric acid and glycine in the pH range 2-6 were prepared by titrating 250 mL of a single stock containing both buffer agents with 1N NaOH/1N HCl and removing 50 mL aliquots at predetermined pH values. Solutions at 1 mg/mL were prepared in buffers of pH 2-5 by dissolving ˜25 mg of Compounds having the active agent (N-(4,6-Bis-n-propylamino-[1,3,5]triazin-2-yl)-O,N-dimethyl-hydroxylamine) H2SO4 in ˜23 mL of a given buffer, adjusting the pH to the target and making up the volume to 25.0 mL in a volumetric flask. The solution at pH 6 was prepared similarly but at a lower drug concentration of 0.25 mg/mL using 6.68 mg of Compounds having the active agent (N-(4,6-Bis-n-propylamino-[1,3,5]triazin-2-yl)-O,N-dimethyl-hydroxylamine) H2SO4.
Each of the buffered solutions were filtered through a 0.2 μm polyether sulfone syringe filter into a volumetric flask, which had been previously rinsed with 70% ethanol and dried in a laminar flow hood. Following filtration, each buffered solution was split into 10 aliquots (9 aliquots of 2.5 mL each and 1 aliquot of 2 mL) in 5 mL serum vials previously rinsed with 70% ethanol and dried in a laminar flow hood. Filtration and preparation of aliquots were performed in a laminar flow hood. The 2 mL aliquot of each buffered solution was submitted for T0 analysis (HPLC assay and related substances). Of the nine 2.5 mL aliquots, three aliquots were stored at each 40° C. and 60° C., two aliquots were stored at 25° C. and one aliquot was stored at −70° C. Samples stored at 40° C. and at 60° C. were evaluated for physical appearance, pH, assay and related substances after 1 week, 2 weeks and 4 weeks of storage. Samples at 25° C. and −70° C. served as controls to be analyzed if necessary.
The pH values for all the samples remained relatively constant for up to 4 weeks at both storage temperatures.

[4] = Drug substance stability (API in closed Type I glass vials)
Protocol: Methodology: Approximately 100 mg of the API (Lot 009MSB058) were stored at each of 40° C. and 60° C. in closed Type I glass vials. Samples were analyzed for appearance and percent purity at T0 and after 1 week, 2 weeks and 4 weeks of storage.
Visually, there were no signs of degradation (i.e. discoloration etc.).

CCCNc1nc(NCCC)nc(N(C)OC)n1 [active agent, N-(4,6-Bis-n-propylamino-[1,3,5]triazin-2-yl)-O,N-dimethyl-hydroxylamine]
Active Agent · H2SO4 Concentration ([1]; pH 2.42): 104.1 mg/mL
Active Agent · H2SO4 Concentration ([1]; pH 3): 99.8 mg/mL
Active Agent · H2SO4 Concentration ([1]; pH 3.51): 101.6 mg/mL
Appearance after Shaking ([1]; target pH 2.5): Clear solution
Appearance after Shaking ([1]; target pH 3.0): Clear solution
Appearance after Shaking ([1]; target pH 3.5): Clear solution
Appearance after Shaking ([1]; target pH 4.0): Precipitate
Appearance after Shaking ([1]; target pH 4.5): Precipitate
Appearance after Shaking ([1]; target pH 5.0): Precipitate
Appearance after Shaking ([1]; target pH 5.5): Precipitate
pKa [2]: 5.6
theoretical free base solubility [2]: about 0.18 mg/mL
solution stability versus pH (in words) ([3]; assay and impurities data, pH 2 compared to pH 3-6): significantly less stable at pH 2
Impurities ([3]; target pH 2, 40° C. 2 wk): 1.48%
Impurities ([3]; target pH 2, 40° C. 4 wk): 2.49%
Impurities ([3]; target pH 2, 60° C. 1 wk): 3.83%
Impurities ([3]; target pH 2, 60° C. 2 wk): 9.89%
Impurities ([3]; target pH 2, 60° C. 4 wk): 14.34%
Impurities ([3]; target pH 3, 40° C. 2 wk): 0.19%
Impurities ([3]; target pH 3, 40° C. 4 wk): 0.41%
Impurities ([3]; target pH 3, 60° C. 1 wk): 0.71%
Impurities ([3]; target pH 3, 60° C. 4 wk): 2.19%
Impurities ([3]; target pH 4, 40° C. 2 wk): 0.17%
Impurities ([3]; target pH 4, 40° C. 4 wk): 0.22%
Impurities ([3]; target pH 4, 60° C. 2 wk): 0.52%
Impurities ([3]; target pH 4, 60° C. 4 wk): 1.02%
Impurities ([3]; target pH 5, 60° C. 2 wk): 0.62%
Impurities ([3]; target pH 5, 60° C. 4 wk): 1.10%
Impurities ([3]; target pH 6, 40° C. 2 wk): 0.25%
Impurities ([3]; target pH 6, 40° C. 4 wk): 0.28%
Impurities ([3]; target pH 6, 60° C. 4 wk): 1.65%
drug substance stability (in words) ([4]; 4 weeks even at 60° C.): quite stable
Appearance ([4]; 40° C., T = 1 week): White
Purity ([4]; 40° C., T = 1 week): 99.92%
Related Substances (Total) ([4]; 40° C., T = 1 week): Total 0.08
Appearance ([4]; 40° C., T = 2 week): White
Purity ([4]; 40° C., T = 2 week): 99.90%
Related Substances (Total) ([4]; 40° C., T = 2 week): Total 0.10
Appearance ([4]; 40° C., T = 4 week): White
Purity ([4]; 40° C., T = 4 week): 100.00%
Appearance ([4]; 60° C., T = 1 week): powder
Purity ([4]; 60° C., T = 1 week): 99.76%
Related Substances (Total) ([4]; 60° C., T = 1 week): Total 0.24
Appearance ([4]; 60° C., T = 2 week): powder
Purity ([4]; 60° C., T = 2 week): 100.00%
Appearance ([4]; 60° C., T = 4 week): powder
Purity ([4]; 60° C., T = 4 week): 100.00%
Appearance ([4]; T = 0): White
Purity ([4]; T = 0): 100.00%
